Assay results published in article PMC6514978, “Synthesis, Antibacterial Activities, Mode of Action and Acute Toxicity Studies of New Oxazolidinone-Fluoroquinolone Hybrids” (Molecules, 2019).
Values after ≈ are worked out from the molar mass of the structure shown.

How the values were obtained:
[1] = test system: S. pneumoniae (13) clinical isolates; test: Susceptibility of clinical isolates (MIC); assay type: cell-based, Streptococcus pneumoniae
Method: (§1) Susceptibility testing of oxazolidinone-fluoroquinolone hybrids against various bacteria was performed by the broth microdilution method as outlined by the Clinical and Laboratory Standards Institute (CLSI). Three types of media, including cation-adjusted Mueller Hinton broth, Haemophilus Test Medium and cation-adjusted Mueller Hinton broth that contained 3%–5% lysed horse blood, were used to culture the corresponding bacteria. […] A final inoculum of 5 × 10^5 CFU/mL was used and plates were read after incubation for 16–24 h at 35 °C. […] Standard quality control strains (ATCC) were included throughout. Each determination was repeated in triplicate.

[2] = test system: S. aureus (46) clinical isolates; test: Susceptibility of clinical isolates (MIC); assay type: cell-based, Staphylococcus aureus
Method: as §1

[3] = test system: E. faecalis (72) clinical isolates; test: Susceptibility of clinical isolates (MIC); assay type: cell-based, Enterococcus faecalis
Method: as §1

[4] = test system: S. haemolyticus (32) clinical isolates; test: Susceptibility of clinical isolates (MIC); assay type: cell-based, Staphylococcus haemolyticus
Method: as §1

[5] = test system: S. suis (9) clinical isolates; test: Susceptibility of clinical isolates (MIC); assay type: cell-based, Streptococcus suis; settings: Streptococcus suis, S. suis, 9 clinical isolates
Method: as §1

[6] = test system: H. parasuis (34) clinical isolates; test: Susceptibility of clinical isolates (MIC); assay type: cell-based, Haemophilus parasuis; settings: Glaesserella parasuis, H. parasuis, 34 clinical isolates
Method: as §1

MRSA (13B262) = test: MIC, broth microdilution (CLSI), clinical isolate; assay type: cell-based; settings: Staphylococcus aureus
Source text: (§2) 6 standard strains and 3 clinical isolates were used to the preliminary evaluation of in vitro antibacterial activities of oxazolidinone-fluoroquinolone hybrids. For the further evaluation of hybrids OBP-4 and OBP-5, 263 clinical isolates including S. aureus (46), S. haemolyticus(32), S. epidermidis (10), E. faecalis (72), E. faecium (47), S. pneumoniae (13), H. parasuis (34), S. suis (9), and 8 resistant strains including MRSA, MRSE, CIP-resistant S. aureus and S. haemolyticus, VAN and quinolone-resistant S. pneumoniae, LZD-resistant E. faecalis, LZD/VAN and quinolone-resistant E. faecium were collected and tested.
(§3) Susceptibility testing of oxazolidinone-fluoroquinolone hybrids against various bacteria was performed by the broth microdilution method as outlined by the Clinical and Laboratory Standards Institute (CLSI). Three types of media, including cation-adjusted Mueller Hinton broth, Haemophilus Test Medium and cation-adjusted Mueller Hinton broth that contained 3%–5% lysed horse blood, were used to culture the corresponding bacteria. All compounds including comparator drugs were dissolved in an appropriate solvent at a concentration of 2.048 mg/mL and then serially diluted two-fold to provide the required concentrations. A final inoculum of 5 × 10^5 CFU/mL was used and plates were read after incubation for 16–24 h at 35 °C. […] Standard quality control strains (ATCC) were included throughout. Each determination was repeated in triplicate.

[7] = test system: S. agalactiae^R (13B317), levofloxacin-resistant S. agalactiae; test: MIC, broth microdilution (CLSI), clinical isolate; assay type: cell-based; settings: Streptococcus agalactiae; levofloxacin-resistant S. agalactiae (13B317)
Source text: as §2, §3

[8] = E. faecalis clinical isolates, CLSI criteria
[9] = Enterococcus faecalis, E. faecalis, 72 clinical isolates
[10] = S. haemolyticus clinical isolates, CLSI criteria

CC(=O)NC[C@H]1CN(c2ccc(N3CCOCC3)c(F)c2)C(=O)O1 [LZD, linezolid, reference compound]
CLSI %S (susceptible) ([1]; S. pneumoniae clinical isolates, CLSI criteria): 76.9/- % | MIC Range ([1]; S. pneumoniae, 13 clinical isolates): 0.5 to 4 mg/L | MIC50 ([1]; Streptococcus pneumoniae, S. pneumoniae, 13 clinical isolates, read-out: MIC50): 0.5 mg/L (≈ 1.48 µM) | MIC90 ([1]; Streptococcus pneumoniae, S. pneumoniae, 13 clinical isolates, read-out: MIC90): 0.5 mg/L (≈ 1.48 µM) | CLSI %S (susceptible) ([2]; S. aureus clinical isolates, CLSI criteria): 100.0/- % | MIC50 ([2]; Staphylococcus aureus, S. aureus, 46 clinical isolates, read-out: MIC50): 2 mg/L (≈ 5.93 µM) | MIC90 ([2]; Staphylococcus aureus, S. aureus, 46 clinical isolates, read-out: MIC90): 2 mg/L (≈ 5.93 µM) | MIC ([2]; Staphylococcus aureus, S. aureus, 46 clinical isolates, read-out: MIC Range): 0.5 to 2 mg/L (≈ 1.48 to 5.93 µM) | CLSI %R (resistant) [3, 8]: 2.7% | CLSI %S (susceptible) [3, 8]: 97.3% | MIC Range ([3]; E. faecalis, 72 clinical isolates): 0.5 to 8 mg/L | MIC50 [3, 9]: 2 mg/L (≈ 5.93 µM) | MIC90 [3, 9]: 2 mg/L (≈ 5.93 µM) | CLSI %R (resistant) [4, 10]: 3.8% | CLSI %S (susceptible) [4, 10]: 96.2% | MIC50 ([4]; Staphylococcus haemolyticus, S. haemolyticus, 32 clinical isolates, read-out: MIC50): 0.5 mg/L (≈ 1.48 µM) | MIC90 ([4]; Staphylococcus haemolyticus, S. haemolyticus, 32 clinical isolates, read-out: MIC90): 2 mg/L (≈ 5.93 µM) | MIC ([4]; Staphylococcus haemolyticus, S. haemolyticus, 32 clinical isolates, read-out: MIC Range): 0.125 to 8 mg/L (≈ 0.371 to 23.7 µM) | MIC50 ([5]; read-out: MIC50): 0.5 mg/L (≈ 1.48 µM) | MIC90 ([5]; read-out: MIC90): 4 mg/L (≈ 11.9 µM) | MIC ([5]; read-out: MIC Range): 0.5 to 4 mg/L (≈ 1.48 to 11.9 µM) | MIC50 ([6]; read-out: MIC50): 16 mg/L (≈ 47.4 µM) | MIC90 ([6]; read-out: MIC90): > 32 mg/L | MIC (MRSA (13B262)): 4 mg/L (≈ 11.9 µM) | MIC [7]: 1 mg/L (≈ 2.96 µM)
